# Data reported in US8349793B2, “Method for treatment of inflammatory disease and disorder” (Heal0r, Ltd., priority 2010, dated 2013).
# Values joined by “and” are separate entries in the source; they are usually repeats but may differ in a detail not shown here. Equal values may be shown once. Where no end group is shown, it is not given here. The star is where a group is joined. Myristoyl = CCCCCCCCCCCCCC(=O)*
# What was measured:
# C57BL/6J mouse = test: Wound model of skin inflammation, immunohistochemical staining (ICAM-1, Iba-1, MAC-2, CD3, neutrophils); type: in vivo; settings: treated daily
# From the text: A methodology was developed to detect and quantitatively assess inflammation in skin lesions in a wound setting which allows one to follow cutaneous inflammatory response in the different skin compartments and identify agents that affect this response (as a preliminary screening). Inflammatory response was considered severe when two of the following three conditions were evident: (1) abscess formation; (2) excessive leukocytosis (>100 cells in a fixed field×200); (3) high WB C/RBC ratio in blood vessels, where >20% of WBC content within the blood vessels is shown in a fixed field×200. Mechanistic characterization of the immunological response is studied utilizing markers to identify infiltration and activation of specific immunological cells. Examples for such markers are: ICAM-1 (as a marker activated basal keratinocytes and endothelial cells), MAC-2 (as a marker for activated macrophages) and CD3 (T cell marker).
# (§1) A two-cm longitudinal incision was done on the upper back of a C57BL/6J mouse. Following wounding, a sterile pad was sutured to the mouse's skin. Animals were treated daily with HO/02/10 (n=12). Five days post-wounding, when inflammatory phase reaches its peak, the mice were sacrificed, skin tissues were embedded in paraffin and immunohistochemical staining was performed utilizing anti-ICAM-1 antibodies.
# as §1, with “As above, a two-cm” for “A two-cm”, “with MPDY-1 (n=6).” for “with HO/02/10 (n=12).”
# The effect of MPDY-1 on macrophage infiltration was also shown by Iba-1 staining. Iba-1 is a general marker for macrophages. […] As above, a two-cm longitudinal incision was done on the upper back of a C57BL/6J mouse. Following wounding, a sterile pad was sutured to the mouse's skin. Animals were treated daily with MPDY-1 (n=6). […]
# IKK = test: TNFα induced IKK activation in keratinocytes (Western Blot, phospho-IKKa/b); type: cell-based, Murine; settings: TNFα 35 ng/ml for 15 minutes
# Protocol: Murine primary keratinocytes were grown for 4 days to full confluence in Low Ca^+2 MEM. Cells were pretreated with designated concentration of MPDY-1 as described in the figure for 1 hour, prior to TNFα induction. Following MPDY-1 pretreatment, cells were incubated with TNFα 35 ng/ml for 15 minutes. Reaction was stopped by adding ice-cold dPBS−/− and keratinocytes were homogenized in RIPA buffer. Samples were subjected to SDS PAGE Western Blot analysis, utilizing phospho-IKKa/b (Ser176/180 antibody).
# keratinocytes = test: Cytokine secretion in keratinocytes stimulated by LPS, TNFα or IL-17 (ELISA); type: cell-based, BALB/C mice
# Protocol: To determine their effects, keratinocytes were derived from newborn BALB/C mice skin. The cells were incubated for 5 days in 24 wells plate. Cells were then incubated with PBS−/− as control or stimulated by LPS, TNFα, or IL-17. PKCα inhibitors were added as indicated. Medium containing secreted cytokines was collected after 48 hr and analyzed using ELISA. FIG. 40 is a tabular summary of cytokine secretion.
# PKCδactivators were also shown to have an anti-inflammatory effect on keratinocytes and splenocytes. Keratinocytes were derived from newborn BALB/C mice skin. The cells were incubated for 5 days in 24 wells plate. Cells were then incubated with PBS−/− as control or stimulated by LPS or TNFα. The PKCδ inhibitor DAP-1 (SEQ ID NO: 16) was added. Medium containing secreted cytokines was collected after 48 hr and analyzed using ELISA. FIG. 35 is a tabular summary showing cytokine secretion in splenocytes stimulated with LPS. […] Cytokine secretion in keratinocytes stimulated by TNFα: following stimulation with 35 ng/ml TNFα. And treatment with 10 μg/ml of DAP-1, the cytokine levels of IL-1α, G-CSF, MIP-2 and KC were reduced by 95%, 70%, 20% and 30# respectively.
# PKCε inhibitors were also shown to have an anti-inflammatory effect on keratinocytes. Keratinocytes were derived from newborn BALB/C mice skin. The cells were incubated for 5 days in 24 wells plate. Cells were then incubated with PBS−/− as control or stimulated by LPS or TNFα. The PKCεinhibitors EPIP-1 (SEQ ID NO: 20), EPIP-2 (SEQ ID NO: 21), or EPIP-4 (SEQ ID NO: 23) were added. Medium containing secreted cytokines was collected after 48 hr and analyzed using ELISA. FIGS. 36-39 show the results for secretion of specific cytokines while Table 8 summarizes cytokine secretion for the various PKCε inhibitors: […]
# healthy volunteers = test: Histamine prick test model of pruritus; type: in vivo, human (healthy volunteers); settings: for Pruritus score after minutes of histamine, 5 minutes / Pruritus score after minutes of histamine, 15 minutes: topical on forearm
# Protocol: Forearms of individual subjects were injected with histamine solution and placebo. The formulation of Example 4 was topically applied with MPDY-1 at various concentrations and pruritus was assessed over a time course as shown, for example in FIG. 34.
# This test was performed by placing a drop of a solution containing a possible allergen on the skin, and a series of scratches or needle pricks allow the solution to enter the skin. The extract enters into the outer layer of the skin (epidermis) using a fine needle (such as a. 26G disposable needle). This testing is not painful, and generally there is no bleeding involved since the needle only scratches the surface of the skin. If the skin develops a red, raised itchy area (called a wheal), it is as a result of allergic reaction to that allergen. This is called a positive reaction. A drop of extract is introduced through a fine needle (such as a No. 26 disposable needle). The test causes no discomfort and minimal trauma so that controls and negative test show only the site of the prick; if anything.
# 26G needles were utilized to introduce histamine stock (Histatrol Positive Control Histamine, 1 mg/ml, code #HIST14999V, Trupharm). The test was conducted on healthy volunteers in a double-blind, randomized test. The formulations were applied on the forearms. Three treatment areas were chosen and marked (the surface of the forearm from the elbow to the wrist was divided transversely into proximal, middle and distal thirds); the areas were pricked prior the below treatments.
# An area was treated with the active formulation in a double-blind manner, for 10 minutes—marked as A.
# An area was treated with the Placebo in a double-blind manner, for 10 minutes—marked as C.
# A color photograph was taken at time zero (T0), after 10, 20, 30 minutes.
# Pruritus questionnaire was answered by the subjects 5 and 15 minutes after treatment.
# In one study, three subjects were treated, in the left or right arm, with MDPY-1 in gel or cream formulations, or with control formulations, as shown in Table 9.
# Subjects were provided with pruritus sensation forms and asked to indicate the level of pruritus sensed from 0 (no response) to 4 (uncontrollable pruritus) at different time intervals.
# [1] = 10 ppm in gel, score 0 (no response) to 4 (uncontrollable pruritus)
substance,measurement,setting,value
Myristoyl-Phe-Ala-Arg-Lys-Gly-Ala-Leu-Arg-Gln (Myristoyl-FARKGALRQ) [MPDY-1],Activation of macrophages (MAC-2 staining),"C57BL/6J mouse; 5 days, 1, 10 and 100 micrograms per mL",significantly inhibited
same,ICAM expression on basal keratinocytes and endothelial cells in blood vessels of the skin (ICAM-1 staining),C57BL/6J mouse; five days post-wounding,down regulation
same,macrophage infiltration (Iba-1 staining),C57BL/6J mouse; five days post-wounding,dose dependent effect
same,MPDY-1 concentration exhibiting the strongest inhibition of IKK activation,IKK; lowest concentration tested,0.1 mg/mL
same,TNFα induced IKK activation in keratinocytes,"IKK; pretreated 1 hour, dose dependant",significantly reduced
same,cytokine secretion from LPS and TNFα activated keratinocytes,keratinocytes; FIGS. 19 to 23,decrease
same,cytokine secretion from IL-17A activated keratinocytes,keratinocytes; FIGS. 24 to 27,decrease
same,cytokine secretion in keratinocytes,"keratinocytes; stimulated by LPS, TNFα, or IL-17, 48 hr",effective in decreasing cytokine secretion
same,"Pruritus score after minutes of histamine, 5 minutes","healthy volunteers; 1 μg/ml in DPBS, score 0 to 4",3
same,"Pruritus score after minutes of histamine, 15 minutes","healthy volunteers; 1 μg/ml in DPBS, score 0 to 4",1
same,"Pruritus score after minutes of histamine, 5 minutes","healthy volunteers; 10 μg/ml in DPBS, score 0 to 4",2 and 1
same,"Pruritus score after minutes of histamine, 15 minutes","healthy volunteers; 10 μg/ml in DPBS, score 0 to 4",0
same,"Pruritus score after minutes of histamine, 5 minutes","healthy volunteers; 10 ppm in cream, score 0 to 4",1
same,"Pruritus score after minutes of histamine, 15 minutes","healthy volunteers; 10 ppm in cream, score 0 to 4",0
same,"Pruritus score after minutes of histamine, 5 minutes",healthy volunteers; [1],2
same,"Pruritus score after minutes of histamine, 15 minutes",healthy volunteers; [1],0
same,"redness, inflammation and pruritus as compared with control","healthy volunteers; histamine prick test, over the time course",significantly attenuated
